Results as given in US20100048921A1, “PHARMACEUTICALLY ACTIVE COMPOUNDS” (priority 2007, published 2010).

Tested on: thrombocytes (platelet-rich plasma)
Test: Collagen-induced thrombocyte aggregation in platelet-rich plasma (aggregometry, PAP-8E)
Format: cell-based, human
Details: for End point (FA) / Maximum aggregation (MA): substance 50 μM
Method: The substances used, genistein, glu-glu, DMSO, ala-ala were provided by the company Sigma-Aldrich, Munich. For the measurement, the Platelet Aggregation Profiler Model PAP-8E of the company Bio/Data Corporation, an 8-channel aggregometer with a computerised digital curve creation, has been used.
After the taking of a blood sample from a large calibre vein in unbuffered citrate 10%, the whole blood which is achieved by this is centrifugated with about 1,500 RPM for 10 min. The platelet-rich plasma (PRP) which is achieved by this then has to rest for 45 min. at ambient temperature. At the same time, […] for the creation of the respective blank values is gained from the same sample with common centrifugation. For the measurement, cuvettes with a volume of 0.25 ml are used.
Stock solutions of the substances to be tested, including genistein as well as the peptides ala-ala and glu-glu which are used, are prepared in a ratio of 1 mg on 1 ml, genistein as well as the tested coupling products in DMSO, glu-glu and ala-ala in H2O.

[1] = collagen 1 μg/ml, listed as genistein

O=c1c(-c2ccc(O)cc2)coc2cc(O)cc(O)c12 [Genistein, genistein]
active concentration which starts to be effective (collagen-induced aggregation, own specification): 50 µM
aggregation of the platelets (genistein 50 μM, collagen 1 μg/ml, reference (no additive) 90%): 82%
aggregation (genistein 100 μM, collagen 1 μg/ml, reference (no additive) 90%): 50%
thrombocyte aggregation (genistein 200 μM, collagen 1 μg/ml): almost completely inhibited
End point (FA) (collagen 1 μg/ml): 82%
Maximum aggregation (MA) (collagen 1 μg/ml): 85%
End point (FA) [1]: 82%
Maximum aggregation (MA) [1]: 85%
